Laboratory results taken from patent US20250136568A1, “FUSED HETEROCYCLIC COMPOUNDS AS PI3KALPHA INHIBITORS” (Nanjing Zenshine Pharmaceuticals Co., Ltd., priority 2021, published 2025).
Like-named read-outs stand apart in the source and are kept apart here.

Assays:
[1] = tested on: PI3Kα wide type cell line SK-BR-3; experiment: Cell Proliferation IC50 Assay (CellTiter-Glo), SK-BR-3; format: cell-based; conditions: Homo sapiens; SK-BR-3 (PI3Kα wild type), 72 hours, CellTiter-Glo; read-out: IC50 (μM) SK-BR-3
Source text: (§1) PI3Kα H1047R mutation cell line T-47D and MDA-MB-453, E545K mutation cell line MDA-MB-361 and PI3Kα wide type cell line SK-BR-3 were purchased from Cobioer Biotech (cat. no CBP60397, CBP60386, CBP60383 and CBP60413 respectively). The CellTiter-Glo Direct Cell Proliferation Assay Kit was purchased from Prornega (cat. No. G7573)
(§2) For cell proliferation assay in each cell line: • a. Prepare complete medium (R PMI 1640, DMEM or McCoys): Add FBS and appropriate additives according to the information sheet provided by the vendor. Mix gently. • b. Prepare single cell suspension and count the cell numbers and adjust cells to appropriate density. • c. Add 80 μL of cell suspension to 96-well opaque-walled clear bottom plates according to the planned plate layout and place the plates in the CO2 incubator overnight. • d. Prepare intermediate plate: 10 μl of diluted test compounds or staurosporine solution (200×) is added to a 96 deep well plate. Then 390 μl of culture medium without FBS is added to the respective wells. • e. Transfer 20 μL of the solutions from the above intermediate plate to the wells of the plate prepared containing 80 μL of the culture medium and cells. The total dilution is 200 folds. • f. The cells were then incubated at 5% CO2, 37° C. for 72 hours. • g. Equilibrate the plate and its contents to room temperature for approximately 30 minutes. • h. Add 100 μL of CellTiter-Glo reagent to the assay plate • i. Mix contents for 10 minutes on an orbital shaker to induce cell lysis. • j. Allow the plate to incubate at room temperature for 10 minutes to stabilize luminescent signal, • k. Paste the clear bottom with white back seal and record luminescence with Varioskan LUX plate reader.
(§3) Inhibition % and IC50 value were calculated by the formula described below: […]

[2] = tested on: PI3Kα H1047R mutation cell line T-47D; experiment: Cell Proliferation IC50 Assay (CellTiter-Glo), T-47D; format: cell-based; conditions: Homo sapiens, T47D (H1047R), 72 hours, CellTiter-Glo, read-out: IC50 (μM) T47D
Source text: as §1, §2, §3

| SMILES | IC50 [1] [µM] | IC50 ([2]; T47D, 72 h) [µM] | IC50 [2] [µM] |
| --- | --- | --- | --- |
| Cc1cc(C(C)Nc2ccccc2C(=O)O)c2oc(-c3ccc(N4CCOCC4)nc3)c(C)c(=O)c2c1 (stereo not drawn) [Example 81, 2-((1-(3,6-dimethyl-2-(6-morpholinopyridin-3-yl)-4-oxo-4H-chromen-8-yl)ethyl)amino)benzoic acid] | > 10 | 0.15 |  |
| CC(=O)N1CCN(C(C)c2ccc(-c3oc4c([C@@H](C)Nc5ccccc5C(=O)O)cc(C)cc4c(=O)c3C)cc2)CC1 (stereo partly drawn) [Example 138, 2-(((1R)-1-(2-(4-(1-(4-acetylpiperazin-1-yl)ethyl)phenyl)-3,6-dimethyl-4-oxo-4H-chromen-8-yl)ethyl)amino)benzoic acid] | > 10 | 0.083 |  |
| Cc1cc([C@@H](C)Nc2ccccc2C(=O)O)c2oc(-c3ccc(-c4cnn(C)c4)nc3)cc(=O)c2c1 [Example 164, (R)-2-((1-(6-methyl-2-(6-(1-methyl-1H-pyrazol-4-yl)pyridin-3-yl)-4-oxo-4H-chromen-8-yl)ethyl)amino)benzoic acid] | > 10 | 0.38 |  |
| Cc1cc([C@@H](C)Nc2ccccc2C(=O)O)c2oc(-c3ccc(OC4CCN(C)C4)cc3)c(C)c(=O)c2c1 (stereo partly drawn) [Example 160, 2-(((1R)-1-(3,6-dimethyl-2-(4-((1-methylpyrrolidin-3-yl)oxy)phenyl)-4-oxo-4H-chromen-8-yl)ethyl)amino)benzoic acid] | > 10 |  | 0.065 |
| CC(=O)N1CCN(c2ccc(-c3oc4c([C@@H](C)Nc5ccccc5C(=O)O)cc(C)cc4c(=O)c3C)nc2)CC1 [Example 115, (R)-2-((1-(2-(5-(4-acetylpiperazin-1-yl)pyridin-2-yl)-3,6-dimethyl-4-oxo-4H-chromen-8-yl)ethyl)amino)benzoic acid] | 3.43 |  | 0.074 |
| Cc1cc([C@@H](C)Nc2ccccc2C(=O)O)c2oc(-c3ccc(N4CCC(N(C)C)CC4)cc3)c(C)c(=O)c2c1 [Example 161, (R)-2-((1-(2-(4-(4-(dimethylamino)piperidin-1-yl)phenyl)-3,6-dimethyl-4-oxo-4H-chromen-8-yl)ethyl)amino)benzoic acid] | 6.5 | 0.067 |  |
| Cc1cc([C@@H](C)Nc2ccccc2C(=O)O)c2oc(-c3ccc(N4CC(N(C)C)C4)cc3)c(C)c(=O)c2c1 [Example 170, (R)-2-((1-(2-(4-(3-(dimethylamino)azetidin-1-yl)phenyl)-3,6-dimethyl-4-oxo-4H-chromen-8-yl)ethyl)amino)benzoic acid] | > 10 | 0.096 |  |
| CC(=O)N1CCN(C(=O)c2ccc(-c3oc4c([C@@H](C)Nc5ccccc5C(=O)O)cc(C)cc4c(=O)c3C)cc2)CC1 [Example 139, (R)-2-((1-(2-(4-(4-acetylpiperazine-1-carbonyl)phenyl)-3,6-dimethyl-4-oxo-4H-chromen-8-yl)ethyl)amino)benzoic acid] | > 10 | 1.04 |  |
| COC(=O)N1CCN(c2ccc(-c3oc4c([C@H](C)Nc5ccccc5C(=O)O)cc(C)cc4c(=O)c3C)cn2)CC1 (single isomer, unassigned) [Example 155B] | > 10 | 5.06 |  |
| Cc1cc([C@@H](C)Nc2ccc(Cl)nc2C(=O)O)c2oc(-c3ccc(OCCN(C)C)cc3)c(C)c(=O)c2c1 [Example 165, (R)-6-chloro-3-((1-(2-(4-(2-(dimethylamino)ethoxy)phenyl)-3,6-dimethyl-4-oxo-41-1 chromen-8-yl)ethyl)amino)picolinic acid] | 4.39 | 0.042 |  |
| COC(=O)N1CCN(c2ccc(-c3oc4c([C@@H](C)Nc5ccccc5C(=O)O)cc(C)cc4c(=O)c3C)cn2)CC1 (single isomer, unassigned) [Example 155A] | > 10 | 0.12 |  |
| CC(Nc1ccccc1C(=O)O)c1cc(F)cc2c(=O)cc(-c3ccc4nn(C)cc4c3)oc12 (stereo not drawn) [Example 101, 2-((1-(6-fluoro-2-(2-methyl-2H-indazol-5-yl)-4-oxo-4H-chromen-8-yl)ethyl)amino)benzoic acid] | > 10 | 0.29 |  |
